The assay concerns the target T1, human mGlu2 receptor (Homo sapiens, UniProt Q14416).
T1 construct: expressed in transfected cells; host or cells: HEK293
Kind of assay: FLIPR intracellular Ca2+ assay, potentiation of glutamate response in HEK293 clone expressing mGlu2 receptor, rGLAST and Galpha16. Type of assay: cell-based. The conditions noted are these: 1 μM glutamate added ten minutes after test compound, HEK293 cells with human mGlu2, rGLAST, Galpha16, read-out: EC50 values of potentiation effect to glutamate. An excerpt: The compounds of the present invention can be tested e.g. by evaluating intracellular Ca^2+ concentrations in cells permanently expressing human mGlu receptor, the rat glutamate transporter rGLAST and the Galpha16 subunit of the G-protein complex under standard conditions in a fluorometric imaging plate reader (FLIPR, Molecular Devices, Union City, Calif. 94587, USA) by measuring the response of the cells to a test compound in the absence of presence of glutamate. The FLIPR assay is a common functional assay to monitor native or recombinant Galphaq-coupled receptors, and native or recombinant receptors normally linked to other G-protein signalling cascades, which are coupled to calcium through co-expression of an alpha subunit of a promiscuous or chimeric G-protein. In the assay the increase of intracellular calcium is measured through a calcium-dependent fluorescent dye (e.g. Fluo-4 AM) in the FLIPR instrument.
For the purpose of the present study, a cell line permanently expressing a human mGlu receptor, such as the mGlu2 receptor, the rat glutamate transporter rGLAST and the GalphaG16 may be generated by transfection as described in the examples. For selection of a suitable cell clone and also the subsequent measurements, the selected clone the cells will be plated on suitable multiwell plates in a suitable medium (e.g. DMEM Glutamax (GIBCO #21885-025)/10% dialyzed FCS). Cells may be selected by gentamycin treatment as described in the examples. Cells will then be loaded with a suitable Ca^2+ sensitive fluorescence dye, e.g. with 2 μM Fluo-4 AM (Molecular Probes, F14201). Cells will then be washed with a suitable buffer (e.g. HEPES) and the thus treated plates will be measured in a fluorometric imaging plate reader (e.g. FLIPR, Molecular Devices, Union City, Calif. 94587, USA).
The compounds of the present invention were tested in the above-described FLIPR assay using the selected cell clone. Increased intracellular calcium levels were quantified following addition of test compound (agonism), as well as following addition of a submaximal concentration of glutamate (potentiation).
For the determination of the effect of the test compound by itself (agonism) or by increasing the response to a submaximal concentration (e.g. 1 μM) of glutamate (potentiation), the resulting signal is determined by subtraction of the background fluorescence from the maximal fluorescent peak height of the respective response. In the FLIPR instrument the compound is given to the cell and its fluorescence response quantified by the FLIPR instrument (agonism). The concentration at which the compound exerts half its maximal effect is named the ‘effective concentration 50’ or ‘EC50’. The maximal effect induced by the test substance is normalized to the maximal effect exerted by 100 μM glutamate (set at 100%).
After addition of the test compound to the plate, a submaximal concentration of glutamate (e.g. 1 μM glutamate) will be added. A potentiator enhances the response of the receptor to glutamate. The response to glutamate in the presence of test compound is quantified. The concentration at which the test compound is able to exert half its maximal potentiation effect to glutamate is named the ‘EC50’. The maximal response to the submaximal concentration of glutamate (e.g. 1 micromolar glutamate) in the presence of test compound is normalized to the maximal effect exerted by 100 micromolar glutamate (set at 100%). Least squares curve fitting with a four-parameter equation is then applied to the resulting dose-response curve to determine the resulting EC5O values (Graph Pad Prism).
For the purpose of the present study, a cell line permanently expressing the human mGlu2 receptor, the rat glutamate transporter rGLAST and the alpha subunit of G16 was generated by transfection. […]
T1 sequence (Q14416 19-872): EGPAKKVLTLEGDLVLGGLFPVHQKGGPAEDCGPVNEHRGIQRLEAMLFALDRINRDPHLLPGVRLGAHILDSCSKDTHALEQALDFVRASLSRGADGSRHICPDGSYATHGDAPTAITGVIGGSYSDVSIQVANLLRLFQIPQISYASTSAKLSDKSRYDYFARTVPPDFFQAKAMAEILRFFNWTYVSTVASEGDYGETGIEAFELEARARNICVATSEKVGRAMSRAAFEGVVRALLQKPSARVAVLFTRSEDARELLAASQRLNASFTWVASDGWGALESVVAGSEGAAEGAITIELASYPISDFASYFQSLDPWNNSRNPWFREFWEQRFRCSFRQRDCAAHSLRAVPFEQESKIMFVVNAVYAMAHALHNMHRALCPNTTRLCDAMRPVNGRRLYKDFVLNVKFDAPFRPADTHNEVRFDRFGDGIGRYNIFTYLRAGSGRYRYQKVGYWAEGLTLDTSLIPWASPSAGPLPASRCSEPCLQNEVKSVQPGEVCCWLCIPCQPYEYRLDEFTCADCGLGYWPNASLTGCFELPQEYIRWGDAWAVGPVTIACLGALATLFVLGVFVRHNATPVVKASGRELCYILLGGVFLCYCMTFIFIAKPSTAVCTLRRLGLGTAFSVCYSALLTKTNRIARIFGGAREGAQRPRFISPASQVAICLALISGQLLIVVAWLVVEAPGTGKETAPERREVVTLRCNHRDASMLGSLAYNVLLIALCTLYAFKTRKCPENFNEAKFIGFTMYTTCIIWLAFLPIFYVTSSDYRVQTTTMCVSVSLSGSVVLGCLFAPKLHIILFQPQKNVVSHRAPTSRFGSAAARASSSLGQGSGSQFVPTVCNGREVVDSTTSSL
Broadly, the EC50 is the concentration giving half of the maximal effect. `CCCC(=O)c1ccc(NCc2c[nH]nc2-c2ccccc2)cc1` [Example 210, 1-{4-[(3-Phenyl-1H-pyrazol-4-ylmethyl)-amino]-phenyl}-butan-1-one]: the EC50 is under 1 µM.
For the compound `CCCC(=O)c1ccc(NCc2c(C)nn(C)c2C)cc1` [Example 211, 1-{4-[(1,3,5-Trimethyl-1H-pyrazol-4-ylmethyl)-amino]-phenyl}-butan-1-one], the half-maximal effective concentration (EC50) lay in the range of 1 to 10 µM.
Next, `CCCC(=O)c1ccc(NCc2c[nH]nc2-c2ccc(C)cc2)cc1` [Example 212, 1-{4-[(3-p-Tolyl-1H-pyrazol-4-ylmethyl)-amino]-phenyl}-butan-1-one]: under 1 µM; `CCCC(=O)c1ccc(NCc2c[nH]nc2-c2cc(F)cc(F)c2)cc1` [Example 213, 1-(4-{[3-(3,5-Difluorophenyl)-1H-pyrazol-4-ylmethyl]-amino}-phenyl)-butan-1-one]: under 1 µM; `CCCC(=O)c1ccc(NCc2cn(-c3ccccc3)nc2-c2ccncc2)cc1` [Example 214, 1-{4-[(1-Phenyl-3-pyridin-4-yl-1H-pyrazol-4-ylmethyl)-amino]-phenyl}-butan-1-one]: 1 to 10 µM.
Take `CCCC(=O)c1ccc(NCc2n[nH]c3ccccc23)cc1` [Example 215, 1-{4-[(1H-Indazol-3-ylmethyl)-amino]-phenyl}-butan-1-one]: the EC50 is 1 to 10 µM.
Regarding `CCCC(=O)c1ccc(NCc2ccnn2C)cc1` [Example 216, 1-{4-[(2-Methyl-2H-pyrazol-3-ylmethyl)-amino]-phenyl}-butan-1-one], the EC50 fell in the range of 1 to 10 µM.
On to `CCCC(=O)c1ccc(NCc2c[nH]nc2-c2ccc(Cl)cc2)cc1` [Example 217, 1-(4-{[3-(4-Chloro-phenyl)-1H-pyrazol-4-ylmethyl]-amino}-phenyl)-butan-1-one], for which the concentration for a half-maximal effect (EC50) is under 1 µM.
For `CCCC(=O)c1ccc(NCc2c[nH]nc2-c2ccc(OC)c(OC)c2)cc1` [Example 218, 1-(4-{[3-(3,4-Dimethoxy-phenyl)-1H-pyrazol-4-ylmethyl]-amino}-phenyl)-butan-1-one], the EC50 was under 1 µM.
As for `CCCC(=O)c1ccc(NCc2nn(C)c3ccccc23)cc1` [Example 219, 1-{4-[(1-Methyl-1H-indazol-3-ylmethyl)-amino]-phenyl}-butan-1-one], the EC50 fell in the range of 1 to 10 µM.
As to `CCCC(=O)c1ccc(NCc2cnn(Cc3ccccc3)c2)cc1` [Example 220, 1-{4-[(1-Benzyl-1H-pyrazol-4-ylmethyl)-amino]-phenyl}-butan-1-one], the concentration for a half-maximal effect (EC50) was in the range of 1 to 10 µM.
For `CCCC(=O)c1ccc(NCc2cn(-c3ccccc3)nc2-c2ccc(F)cc2)cc1` [Example 221, 1-(4-{[3-(4-Fluorophenyl)-1-phenyl-1H-pyrazol-4-ylmethyl]-amino}-phenyl)-butan-1-one], the concentration giving a half-maximal response (EC50) was 1 to 10 µM.
With `CCCC(=O)c1ccc(NCc2cn(-c3ccccc3)nc2-c2cccnc2)cc1` [Example 222, 1-{4-[(1-Phenyl-3-pyridin-3-yl-1H-pyrazol-4-ylmethyl)-amino]-phenyl}-butan-1-one], the EC50 fell in the range of 1 to 10 µM.
Consider `CCCC(=O)c1ccc(NCc2n[nH]c3ccc(OC)cc23)cc1` [Example 223, 1-{4-[(5-Methoxy-1H-indazol-3-ylmethyl)-amino]-phenyl}-butan-1-one], for which the EC50 was 1 to 10 µM.
Next, `CCCC(=O)c1ccc(NCc2c(C)n[nH]c2C)cc1` [Example 224, 1-{4-[(3,5-Dimethyl-1H-pyrazol-4-ylmethyl)-amino]-phenyl}-butan-1-one]: 1 to 10 µM.
The result for `CCCC(=O)c1ccc(NCc2nc3ccccc3n2C)cc1` [Example 226, 1-{4-[(1-Methyl-1H-benzoimidazol-2-ylmethyl)-amino]-phenyl}-butan-1-one] reads 1 to 10 µM; that for `CCCC(=O)c1ccc(NCc2c(C)noc2C)cc1` [Example 227, 1-{4-[(3,5-Dimethyl-isoxazol-4-ylmethyl)-amino]-phenyl}-butan-1-one], 1 to 10 µM; that for `CCCC(=O)c1ccc(NCc2cn(C)cn2)cc1` [Example 228, 1-{4-[(1-Methyl-1H-imidazol-4-ylmethyl)-amino]-phenyl}-butan-1-one], 1 to 10 µM.
With `CCCC(=O)c1ccc(NCc2sc(C)nc2-c2ccccc2)cc1` [Example 233, 1-{4-[(2-Methyl-4-phenyl-thiazol-5-ylmethyl)-amino]-phenyl}-butan-1-one], the concentration for a half-maximal effect (EC50) fell in the range of 1 to 10 µM.
The result for `CCCC(=O)c1ccc(NCc2cnc(-c3ccccc3OC)s2)cc1` [Example 242, 1-(4-{[2-(2-Methoxy-phenyl)-thiazol-5-ylmethyl]-amino}-phenyl)-butan-1-one] reads 1 to 10 µM.
Next, `CCCC(=O)c1ccc(NCc2cnc(-c3cccc(OC)c3)s2)cc1` [Example 243, 1-(4-{[2-(3-Methoxy-phenyl)-thiazol-5-ylmethyl]-amino}-phenyl)-butan-1-one]: 1 to 10 µM; `CCCC(=O)c1ccc(NCc2nc(-c3cccs3)oc2C)cc1` [Example 245, 1-{4-[(5-Methyl-2-thiophen-2-yl-oxazol-4-ylmethyl)-amino]-phenyl}-butan-1-one]: 1 to 10 µM.
On to `CCCC(=O)c1ccc(NCc2cnc(-c3ccccc3)s2)cc1` [Example 246, 1-{4-[(2-Phenyl-thiazol-5-ylmethyl)-amino]-phenyl}-butan-1-one], for which the concentration giving a half-maximal response (EC50) was in the range of 1 to 10 µM.
Next, `CCCC(=O)c1ccc(NCc2sc(Cl)nc2Cl)cc1` [Example 250, 1-{4-[(2,4-Dichloro-thiazol-5-ylmethyl)-amino]-phenyl}-butan-1-one]: 1 to 10 µM.
The result for `CCCC(=O)c1ccc(NCc2cc(-c3ccccc3F)no2)cc1` [Example 255, 1-(4-{[3-(2-Fluorophenyl)-isoxazol-5-ylmethyl]-amino}-phenyl)-butan-1-one] reads 1 to 10 µM.
Next, `CCCC(=O)c1ccc(NCc2cnc(Oc3ccc(OC)cc3)s2)cc1` [Example 260, 1-(4-{[2-(4-Methoxy-phenoxy)-thiazol-5-ylmethyl]-amino}-phenyl)-butan-1-one]: 1 to 10 µM; `CCCC(=O)c1ccc(NCc2csc(C(C)C)n2)cc1` [Example 268, 1-{4-[(2-Isopropyl-thiazol-4-ylmethyl)-amino]-phenyl}-butan-1-one]: 1 to 10 µM.
In the case of `CCCOc1ccc(NCc2c[nH]nc2C(C)(C)C)cc1` [Example 273, (3-tert-Butyl-1H-pyrazol-4-ylmethyl)-(4-propoxy-phenyl)-amine], the 50% effective concentration (EC50) was in the range of 1 to 10 µM.
The result for `CC(C)(C)c1n[nH]cc1CNc1ccc(OC(F)(F)Cl)cc1` [Example 281, (3-tert-Butyl-1H-pyrazol-4-ylmethyl)-[4-(chloro-difluoro-methoxy)-phenyl]-amine] reads 1 to 10 µM.
As to `CN1CCC(Oc2ccc(NCc3c[nH]nc3C(C)(C)C)cc2)CC1` [Example 284, (3-tert-Butyl-1H-pyrazol-4-ylmethyl)-[4-(1-methyl-piperidin-4-yloxy)-phenyl]-amine], the EC50 is 1 to 10 µM.
Consider `CC(C)(C)c1n[nH]cc1CNc1ccc(OCc2ccccn2)cc1` [Example 285, (3-tert-Butyl-1H-pyrazol-4-ylmethyl)-[4-(pyridin-2-ylmethoxy)-phenyl]-amine], for which the EC50 is 1 to 10 µM.
The result for `CC(C)COc1ccc(NCc2c[nH]nc2C(C)(C)C)cc1` [Example 286, (3-tert-Butyl-1H-pyrazol-4-ylmethyl)-(4-isobutoxy-phenyl)-amine] reads 1 to 10 µM.
The result for `CC(C)CCOc1ccc(NCc2c[nH]nc2C(C)(C)C)cc1` [Example 298, (3-tert-Butyl-1H-pyrazol-4-ylmethyl)-[4-(3-methyl-butoxy)-phenyl]-amine] reads 1 to 10 µM; that for `CCCC(=O)c1ccc(NCc2ccc(Cl)nc2Cl)cc1` [Example 307, 1-{4-[(2,6-Dichloro-pyridin-3-ylmethyl)-amino]-phenyl}-butan-1-one], 1 to 10 µM.

Source of the values: US9242933B2 (AbbVie Deutschland GmbH & Co. KG, priority 2007, dated 2016).
